Among the data in patent US5521200A, “2-oxo-pyrrolo[1,2-A]benzimidazole-3-carboxyl derivatives useful in treating central nervous system disorders” (priority 1994, dated 1996) are minimal effective dose, IC50 and ED50 values, retold here.

The subject of test [1] is adult male rat (conflict behavior suppressed by punishment). The test can be described thus: Suppression of anxiety in the adult male rat (Conflict, Vogel). It is filed as in vivo. As to conditions: ip, minimum effective dose, greater than 10 = active dose not determined, read-out: Conflict MED. The source says:
The experiment was run the next day.

The target in test [2] is benzodiazepine site of the GABA-A receptor. Kind of test: Benzodiazepine Receptor Binding Assay (inhibition of 3H-flunitrazepam binding). The following applies: ca. 3 nM 3H-flunitrazepam, 10-20 min at 25° C., membranes; over 10,000 = not active.
The test system of test [3] is metrazol-induced convulsions in mice. The test can be described thus: Suppression of Metrazol-Induced Convulsions. It is filed as in vivo, mouse (male CD1 mice). As to conditions: Mus musculus, ip, sc metrazol CD90, block of clonic convulsions, greater than 30 = active dose not determined.

The term IC50 denotes the concentration needed to halve the response being measured. Read a low IC50 as greater potency in that assay. By ED50 is commonly meant the dose that gives a 50% effect, or the effect in half of the subjects. Read a high ED50 as weaker potency. In the case of `O=C1CN2C(=C1C(=O)Nc1ccncc1)Nc1ccccc12` [CP #1, N-(4-Pyridyl)-1,2-dihydro-4H-pyrrolo[1,2-a]benzimidazole-3-carboxamide-2(1H)-one], the minimal effective dose in test [1] was greater than 10 mg/kg. Besides, the IC50 in test [2] worked out at 7.22 µM. For the same compound, the ED50 in test [3] was greater than 10 mg/kg.

In the case of `CN(C)c1ccc(NC(=O)C2=C3Nc4ccccc4N3CC2=O)cc1` [CP #2, N-(4-Dimethylaminophenyl)-1,2-dihydro-2-oxo-4H-pyrrolo[1,2-a]benzimidazole-3-carboxamide], the minimal effective dose in test [1] is greater than 10 mg/kg. In test [2], this compound returned an IC50 of 1.74 µM. Also, the ED50 in test [3] was greater than 30 mg/kg.

Take `O=C1CN2C(=C1C(=O)Nc1cc(F)ccc1F)Nc1ccccc12` [CP #3, N-(2,5-Difluorophenyl)-1,2-dihydro-2-oxo-4H-pyrrolo[1,2-a]benzimidazole-3-carboxamide]: the minimal effective dose in test [1] is greater than 10 mg/kg. In addition, the IC50 in test [2] is greater than 10 µM.

In the case of `O=C1CN2C(=C1C(=O)Nc1c(F)cccc1F)Nc1ccccc12` [CP #5, N-(2,6-Difluorophenyl)-1,2-dihydro-2-oxo-4H-pyrrolo[1,2-a]benzimidazole-3-carboxamide], the minimal effective dose in test [1] was less than 10 mg/kg. Besides, in test [2], the IC50 amounted to 0.0801 µM. In test [3], it took a dose of 6 mg/kg to reach the 50% effect level (ED50).

Regarding `CN1C2=C(C(=O)Nc3c(F)cccc3F)C(=O)C(C)(C)N2c2ccccc21` [CP #6, N-(2,6-Difluorophenyl)-1,2-dihydro-1,1,4-trimethyl-4H-pyrrolo[1,2-a]benzimidazole-3-carbozamide-2(1H) one], the minimal effective dose in test [1] was greater than 10 mg/kg. In test [2], this compound came in with an IC50 greater than 10 µM. In addition, in test [3], the median effective dose (ED50) lay within 1 to 10 mg/kg.

As to `CCN1C2=C(C(=O)Nc3c(F)cccc3F)C(=O)CN2c2ccccc21` [CP #7, N-(2,6-Difluorophenyl)-1,2-dihydro-4-ethyl-4H-pyrrolo[1,2-a]benzimidazole-3-carboxamide-2(1H)-one], in test [1], the minimal effective dose is greater than 10 mg/kg. This compound showed an IC50 in test [2] greater than 10 µM. This compound gave an ED50 in test [3] greater than 10 mg/kg.

With `O=C1CN2C(=C1C(=O)Nc1ccc(F)cc1F)Nc1ccccc12` [CP #8, N-(2,4-Difluorophenyl)-1,2-dihydro-2-oxo-4H-pyrrolo[1,2-a]benzimidazole-3-carboxamide], the minimal effective dose in test [1] is greater than 10 mg/kg. Also, the IC50 in test [2] is greater than 10 µM.
